Measurements: patent publication US20250034216A1, “STEREOSELECTIVE COVALENT LIGANDS FOR ONCOGENIC AND IMMUNOLOGICAL PROTEINS” (The Scripps Research Institute, priority 2021, published 2025)

Legend:
Experiment in all cases: IA-DTB cysteine engagement
Format in all cases: binding
Conditions in all cases: 22Rv1 cells, 20 μM probe, 1 h, relative to DMSO
[1] = target: T1, CBX1_C60 (Homo sapiens, UniProt P83916)
T1 construct: endogenous in cells; host or cells: 22Rv1
Summary of the method: (§1)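 In-situ probe treatment of cells; lysate 2 mg/mL, IA-DTB 1 h RT; MeOH/CHCl3 precipitation, DTT/iodoacetamide, trypsin; streptavidin enrichment; TMT labeling, high-pH fractionation. Ratio = TMT reporter intensity / mean DMSO channels, median-normalized.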

[2] = target: T2, ALG3_C21 (Homo sapiens, UniProt Q92685)
T2 construct: endogenous in cells; host or cells: 22Rv1
T2 sequence (Q92685 1-438): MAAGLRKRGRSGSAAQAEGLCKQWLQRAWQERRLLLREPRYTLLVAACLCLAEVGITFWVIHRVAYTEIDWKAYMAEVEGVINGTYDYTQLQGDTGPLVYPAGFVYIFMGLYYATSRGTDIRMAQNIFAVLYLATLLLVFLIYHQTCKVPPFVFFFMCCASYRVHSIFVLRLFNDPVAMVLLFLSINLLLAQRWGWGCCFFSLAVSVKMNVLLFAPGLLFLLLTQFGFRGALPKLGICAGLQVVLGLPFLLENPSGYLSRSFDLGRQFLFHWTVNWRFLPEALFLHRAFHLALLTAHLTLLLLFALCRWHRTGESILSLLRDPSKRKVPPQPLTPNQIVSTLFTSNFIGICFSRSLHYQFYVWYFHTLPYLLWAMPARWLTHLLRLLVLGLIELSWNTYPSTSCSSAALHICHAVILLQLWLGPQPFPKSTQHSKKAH
Summary of the method: as §1

[3] = target: T3, XXYLT1_C10 (Homo sapiens, UniProt Q8NBI6)
T3 construct: endogenous in cells; host or cells: 22Rv1
T3 sequence (Q8NBI6 1-393): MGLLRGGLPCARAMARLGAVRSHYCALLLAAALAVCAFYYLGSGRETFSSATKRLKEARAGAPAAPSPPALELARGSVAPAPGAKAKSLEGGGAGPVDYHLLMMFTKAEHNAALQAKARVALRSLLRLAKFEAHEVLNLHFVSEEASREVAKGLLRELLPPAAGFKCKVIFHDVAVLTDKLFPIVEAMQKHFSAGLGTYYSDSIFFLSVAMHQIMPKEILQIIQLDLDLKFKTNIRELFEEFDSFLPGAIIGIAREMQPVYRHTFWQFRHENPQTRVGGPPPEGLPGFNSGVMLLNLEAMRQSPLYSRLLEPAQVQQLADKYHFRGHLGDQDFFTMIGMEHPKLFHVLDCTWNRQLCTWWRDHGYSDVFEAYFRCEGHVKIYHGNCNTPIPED
Summary of the method: as §1

T1 sequence (P83916 whole entry): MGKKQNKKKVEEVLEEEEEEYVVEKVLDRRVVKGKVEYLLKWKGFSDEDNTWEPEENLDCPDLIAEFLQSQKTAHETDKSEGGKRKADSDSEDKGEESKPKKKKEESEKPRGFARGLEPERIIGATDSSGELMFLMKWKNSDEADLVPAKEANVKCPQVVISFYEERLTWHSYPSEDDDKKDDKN

Structure (SMILES)	% engagement CBX1_C60 [1] [%]	% engagement ALG3_C21 [2] [%]	% engagement XXYLT1_C10 [3] [%]
C=CC(=O)N1C[C@H](c2ccc(Br)cc2)[C@H]1C(=O)Nc1cccc2cccnc12 [MY-3A, (2S,3S)-1-acryloyl-3-(4-bromophenyl)-N-(quinolin-8-yl)azetidine-2-carboxamide]	14.5	74.5	67
C=CC(=O)N1C[C@H](c2ccc(Br)cc2)[C@@H]1C(=O)Nc1cccc2cccnc12 [MY-1B, (2R,3S)-1-acryloyl-3-(4-bromophenyl)-N-(quinolin-8-yl)azetidine-2-carboxamide]	−14.5	68	77
C=CC(=O)N1C[C@H](c2ccc(Br)cc2)[C@H]1C(=O)Nc1cccc2cccnc12 [MY-3B, (2S,3S)-1-acryloyl-3-(4-bromophenyl)-N-(quinolin-8-yl)azetidine-2-carboxamide]	75	84.75	93
C=CC(=O)N1C[C@@H](c2ccc(Br)cc2)[C@H]1C(=O)Nc1cccc2cccnc12 [MY-1A, (2S,3R)-1-acryloyl-3-(4-bromophenyl)-N-(quinolin-8-yl)azetidine-2-carboxamide]	−11.5	90.25	76.5
